Active and inactive are the calls of the source. The rule behind the calls is not given here.
Test system: CCRIS mutagenicity, Ames/micronucleus/aberration tests
Assay: CCRIS mutagenicity studies
[1] = Test System: AMES SALMONELLA TYPHIMURIUM, Strain/Indicator: TA98, Metabolic Activation: NONE, Method: STANDARD PLATE
[2] = Test System: AMES SALMONELLA TYPHIMURIUM, Strain/Indicator: TA100, Metabolic Activation: NONE, Method: STANDARD PLATE
[3] = Test System: AMES SALMONELLA TYPHIMURIUM, Strain/Indicator: TA98, Metabolic Activation: RAT, LIVER, S-9, AROCLOR 1254, Method: STANDARD PLATE

Question: What does the source list for `COc1cc(O)c2c(c1)C1=C[C@H](O)[C@@H](O)C[C@]1(C)OC2=O`?
Answer: mutagenic call (End Point: Ames Salmonella typhimurium, Strain/Indicator: TA97, Metabolic Activation: None, Method: Standard plate): inactive; negative. nitrosation did not increase mutagenicity; mutagenic call (End Point: Ames Salmonella typhimurium, Strain/Indicator: TA97, Metabolic Activation: Rat, Liver, S-9, Aroclor 1254 (10%), Method: Standard plate): inactive; negative. nitrosation did not increase mutagenicity; mutagenic call (End Point: Ames Salmonella typhimurium, Strain/Indicator: TA102, Metabolic Activation: None, Method: Standard plate): inactive; negative. nitrosation did not increase mutagenicity; mutagenic call (End Point: Ames Salmonella typhimurium, Strain/Indicator: TA102, Metabolic Activation: Rat, Liver, S-9, Aroclor 1254 (10%), Method: Standard plate): inactive; negative. nitrosation did not increase mutagenicity; mutagenic call (End Point: Ames Salmonella typhimurium, Strain/Indicator: TA104, Metabolic Activation: None, Method: Standard plate): inactive; negative. nitrosation did not increase mutagenicity; mutagenic call (End Point: Ames Salmonella typhimurium, Strain/Indicator: TA104, Metabolic Activation: Rat, Liver, S-9, Aroclor 1254 (10%), Method: Standard plate): inactive; negative. nitrosation did not increase mutagenicity; mutagenic call [1]: inactive; negative; mutagenic call (Test System: AMES SALMONELLA TYPHIMURIUM, Strain/Indicator: TA98, Metabolic Activation: RAT LIVER S-9, AROCLOR 1254, Method: STANDARD PLATE): inactive; negative; mutagenic call [2]: inactive; negative; mutagenic call (Test System: AMES SALMONELLA TYPHIMURIUM, Strain/Indicator: TA100, Metabolic Activation: RAT LIVER S-9, AROCLOR 1254, Method: STANDARD PLATE): inactive; negative

Question: With `C1COCCOCCOCCOCCOCCOCCO1` as the compound, how does the mutagenic call [1] read?
Answer: inactive; negative

Question: And the mutagenic call [3]?
Answer: inactive; negative

Question: And the mutagenic call [2]?
Answer: inactive; negative

Question: What about the mutagenic call (Test System: AMES SALMONELLA TYPHIMURIUM, Strain/Indicator: TA100, Metabolic Activation: RAT, LIVER, S-9, AROCLOR 1254, Method: STANDARD PLATE) of the same compound?
Answer: inactive; negative

Question: What about the mutagenic call (Test System: AMES SALMONELLA TYPHIMURIUM, Strain/Indicator: TA1530, Metabolic Activation: NONE, Method: STANDARD PLATE) of the same compound?
Answer: inactive; negative

Question: What about the mutagenic call (Test System: AMES SALMONELLA TYPHIMURIUM, Strain/Indicator: TA1530, Metabolic Activation: RAT, LIVER, S-9, AROCLOR 1254, Method: STANDARD PLATE) of the same compound?
Answer: inactive; negative

Question: What about the mutagenic call (Test System: AMES SALMONELLA TYPHIMURIUM, Strain/Indicator: TA1537, Metabolic Activation: NONE, Method: STANDARD PLATE) of the same compound?
Answer: inactive; negative

Question: And the mutagenic call (Test System: AMES SALMONELLA TYPHIMURIUM, Strain/Indicator: TA1537, Metabolic Activation: RAT, LIVER, S-9, AROCLOR 1254, Method: STANDARD PLATE)?
Answer: inactive; negative

Question: With `CC(=O)N(O)c1ccc(Sc2ccccc2)cc1` as the compound, how does the mutagenic call [1] read?
Answer: active; positive

Question: What about the mutagenic call [3] of the same compound?
Answer: active; positive

Question: `Oc1cccc2c1ccc1c3c4c(cccc4cc12)C=C3` was tested. Which mutagenic call [1] did it give?
Answer: inactive; negative

Question: And the mutagenic call (Test System: AMES SALMONELLA TYPHIMURIUM, Strain/Indicator: TA98, Metabolic Activation: RAT, LIVER, S-9, AROCLOR 1254 (0, 0.4, 0.8, 1.15 OR 1.5 MG/PLATE), Method: STANDARD PLATE)?
Answer: active; positive

Question: For `CC(C)c1cccc(C(C)C)c1O`, which mutagenic call (End Point: IN VIVO CHROMOSOMAL ABERRATIONS, Test System: PERIPHERAL BLOOD LYMPHOCYTES, Species: HUMAN, Strain/Sex: MALE, FEMALE, Route: IV) is on record?
Answer: inactive; negative

Question: With `COc1cccc2c1cc1c3c(cc4c(c32)OCO4)C(=O)N1[C@H]1O[C@H](CO)[C@@H](O)[C@H](O)[C@H]1O` as the compound, how does the mutagenic call (Test System: AMES SALMONELLA TYPHIMURIUM, Strain/Indicator: TM677/8-AZAGUANINE, Metabolic Activation: NONE, Method: SUSPENSION/PLATE) read?
Answer: inactive; negative

Question: `OC[C@H]1O[C@@H](n2cnc3c(NO)ncnc32)[C@H](O)[C@@H]1O` was tested. Which mutagenic call [1] did it give?
Answer: active; positive

Question: What about the mutagenic call (Test System: AMES SALMONELLA TYPHIMURIUM, Strain/Indicator: TA100(TN5-1,8-DNP1011), Metabolic Activation: NONE, Method: STANDARD PLATE) of the same compound?
Answer: active; positive

Question: What about the mutagenic call (Test System: AMES SALMONELLA TYPHIMURIUM, Strain/Indicator: TA100(TN5-1,8-DNP1012), Metabolic Activation: NONE, Method: STANDARD PLATE) of the same compound?
Answer: active; positive

Question: And the mutagenic call [2]?
Answer: active; positive

Question: What about the mutagenic call (Test System: AMES SALMONELLA TYPHIMURIUM, Strain/Indicator: TA102, Metabolic Activation: NONE, Method: STANDARD PLATE) of the same compound?
Answer: inactive; negative
